Assay results reported in PubChem BioAssay AID624452 (Sanford-Burnham Center for Chemical Genomics, 2012).

Tested on: human liver microsomes, compound remaining, LC-MS
Test: metabolic stability in human liver microsomes, ADME assay, biochemical, with and without NADPH, LC-MS, set 2 (AID 624452);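 also: compound left measured after 60 min microsomal incubation at 37 °C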
Conditions: at 1 µM; for percent remaining without NADPH: measured here: stability without NADPH control

Question: For `CCCc1nc2c(=O)n(C)c(=O)nc-2n(C)n1`, which percent remaining with NADPH is on record?
Answer: 65.6%

Question: What about the percent remaining without NADPH of the same compound?
Answer: 61.5%

Question: What does the source list for `COc1cccc(-c2nc(-c3ccc(NC(=O)Cc4ccccc4OC)cc3)no2)c1`?
Answer: percent remaining with NADPH: 11.1%; percent remaining without NADPH: 69.1%

Question: For `CN(C)C1=C(Cl)C(=O)N(c2ccc(Cl)c(Cl)c2)C1=O`, which percent remaining with NADPH is on record?
Answer: 0.26%

Question: What about the percent remaining without NADPH of the same compound?
Answer: 36.9%

Question: Which results are given for `CCCN(CCC)CCNC(=O)C1CCN(Cc2nc(-c3ccc(Cl)cc3)oc2C)CC1`?
Answer: percent remaining with NADPH: 13.5%; percent remaining without NADPH: 75.6%

Question: `O=c1[nH]c2c(s1)C(c1cccnc1)C1C3CCC(C3)C1S2` (stereo not drawn) was tested. Which percent remaining with NADPH did it give?
Answer: 7.76%

Question: And the percent remaining without NADPH?
Answer: 71.9%

Question: `O=C(CCNS(=O)(=O)c1cccc2nsnc12)N1CCN(c2ccccn2)CC1` was tested. Which percent remaining with NADPH did it give?
Answer: 3.36%

Question: And the percent remaining without NADPH?
Answer: 71.8%

Question: Which percent remaining with NADPH does the source give for `COc1ccc(OC)c(S(=O)(=O)Nc2cnc3ccccc3c2)c1` here?
Answer: 25.9%

Question: And the percent remaining without NADPH?
Answer: 71.5%

Question: With `CCCN1CNc2c(c(=O)[nH]c(=S)n2CCc2ccc(OC)c(OC)c2)C1` as the compound, how does the percent remaining with NADPH read?
Answer: 48.6%

Question: What about the percent remaining without NADPH of the same compound?
Answer: 65%

Question: For `Brc1ccc2c(c1)CN1CCCC1=N2`, which percent remaining with NADPH is on record?
Answer: 56.4%

Question: And the percent remaining without NADPH?
Answer: 77.8%
